`CC(=O)N1N=C(c2ccc(NC(=O)CCl)cc2)c2cc3c(cc2CC1C)OCO3` (stereo not given) displayed a melting point of 139 to 140 °C. `COC(=O)Cc1nn(Cc2ccc(Br)cc2F)c(=O)c2ccccc12` had a melting point of 151 to 153 °C. `CCC(O)C(=O)Nc1c(C)c(C)c2c(c1C)C(c1ccc(C(C)C)cc1)CO2` (stereo not given) yielded a melting point of 146 to 147 °C. Consider `CCOC(=O)c1cnc2c(C)csc2c1Nc1ccccc1C`, for which the melting point was in the range of 132 to 134 °C. Next, `CCOC=Nc1c(S(C)=O)c(C#N)nn1-c1c(Cl)cc(C(F)(F)F)cc1Cl` (stereo not given): 93 to 95 °C; `O=C(O)CCc1cc2cc(Cl)ccc2n1S(=O)(=O)c1ccc2ncsc2c1`: 96 to 100 °C. The result for `O=C(NC(=O)c1ccco1)NC1CCN(Cc2ccc3ccccc3c2)CC1` reads 157 to 159 °C; that for `CN(N)c1cc(Cl)ncn1`, 182 to 185 °C; that for `CCCCCCCCCCCCCCCCCNC(=O)OCC(CO)Oc1cc(C)on1` (stereo not given), 77 to 79 °C. For `CCNc1nc(Nc2ccccc2)ncc1C(=O)OCC`, the melting point was in the range of 145 to 147 °C. The result for `CC(=O)N1c2c(ccc3c2nc(C)n3C)[C@@H]2O[C@@H]2[C@H]1c1ccccc1` reads 200 to 205 °C; that for `Clc1ccc(N2CCN(Cc3c[nH]c4ncccc34)CC2)cc1`, 226 to 227 °C. Next, `CC1=CC(OC(=O)c2ccc(N(C)C)cc2)C(O)C(C)(C)CC1=O` (stereo not given): 162 to 163 °C; `C[C@@H](O)[C@H]1C(=O)N([Si](C)(C)C(C)(C)C)[C@@H]1CC(=O)[Si](C)(C)C`: 82 to 84 °C.

`CC(=O)N1Cc2c(-c3nc(C4CC4)no3)ncn2-c2ccccc21` yielded a melting point of 202 °C. The result for `CC1(C)OCC(=CCn2cnc3c(Cl)nc(N)nc32)CO1` reads 157 to 159 °C; that for `O=C(O)c1cnn(-c2ccc(F)cc2)c1Cl`, 230 to 231 °C; that for `CC(=O)NCC1CC(c2cc(F)c(N3CCN(C(=O)C4COc5ccccc5O4)CC3)c(F)c2)=NO1` (single isomer, unassigned; (-)), 158 to 159 °C. Next, `CC(=O)Nc1ccc(C=C(C(=O)C2CC2)C(=O)C2CC2)cc1`: 166 to 167 °C; `CCOC(=O)c1cn(CC)c2nc3cc(Cl)c(F)cc3cc2c1=O`: 300 to 301 °C. Turning to `O=C1C2C(C(=O)N1Cc1ccccc1)C2[N+](=O)[O-]` (stereo not given), the melting point is 108 to 109 °C.

`Cc1ccccc1C(=O)Nc1ccc(C(=O)N2CCCC(N(C)C)c3ccccc32)c(C)c1` (stereo not given) registered a melting point of 183 to 185 °C. `C=Cc1ccc(P(c2ccccc2)c2ccccc2)cc1` displayed a melting point of 77 to 78 °C.

On to `Cc1cc(C#N)cnc1Oc1c(Cl)cc(N)cc1Cl`, for which the melting point was found to be 212 °C. As for `O=C(CCCCC1CCSS1)NO` (stereo not given), the melting point was in the range of 63 to 64 °C. The result for `O=C1NCc2cnc(Nc3ccc(N4CCC(CCCO)CC4)cc3)nc2N1C1CCCC1` reads over 230 °C; that for `CCc1ccc(C)c(NC(=O)C(C)(C)C)n1`, 72 to 75 °C; that for `O=C1Nc2cc(F)ccc2Oc2ccccc21`, 228 to 229 °C.

The compound `COC(=O)Nc1cccc(OC(=O)N(CCC#N)c2ccccc2)c1` returned a melting point of 98 to 99 °C. Consider `CNc1nc(C)c(-c2nc3ccccc3c(=O)n2-c2ccc(C(C)=O)cc2)s1`, for which the melting point was in the range of 245 to 246 °C.

As for `COC(=O)c1cc2c(C)ccc(C)c2n1C(C)=O`, the melting point lay in the range of 92 to 93 °C. Next, `Cn1cc(C(=O)NCc2ccc(Cl)cc2)c(=O)c2cc(/C=C\CO)cc(F)c21`: 182 to 184 °C. The result for `C=CCN(C(=O)n1oc(C)c(Cl)c1=O)c1ccc(Cl)cc1Cl` reads 90.5 to 92 °C; that for `Cn1cc(SC(C)(C)C)c(=O)c(-c2ccc(Cl)c(C(F)(F)F)c2)c1`, 138 to 142 °C; that for `O=C(O)CNC(=NS(=O)(=O)c1ccccc1)Nc1cccc(Cl)c1`, 218 °C. `COc1cccc(Cn2c(=O)[nH]c3cc(Cl)cc(Cl)c3c2=O)c1` displayed a melting point of 216 to 220 °C.

The compound `O=C1OCC(CC(F)(F)F)N1c1nc(-c2ccc(Br)cc2)cs1` (stereo not given) registered a melting point of 163 to 165 °C.

As for `CC(=O)SCC(Cc1ccccc1)C(=O)Nc1cc(C(=O)O)ccc1N1CCCC1` (stereo not given), the melting point was in the range of 217 to 222 °C.

Take `CCCC(=O)Nc1ccc(-c2ccncc2)cc1`: the melting point is 174 to 175 °C. The result for `NS(=O)(=O)c1cccc(-c2cccc(-c3nc(-c4ccc(C(F)(F)F)cc4)cc(C(F)(F)F)n3)c2)c1` reads 267 °C. In turn, `CN1CCN(c2ccc3[nH]c(=O)c(-c4csc(-c5ccncc5)n4)c(N)c3c2)CC1` showed a melting point of over 220 °C. For the compound `COc1ccc(Cl)cc1-n1c(-c2cc(C(F)(F)F)cc(C(F)(F)F)c2)n[nH]c1=O`, the melting point fell in the range of 206 to 207 °C. In turn, `CNc1nc(SC)ncc1C` showed a melting point of 134 °C. The compound `Cn1ncc(C=O)c1-c1cccnc1` had a melting point of 118 to 119 °C.

With `NC1=NN(c2ccccc2)C(c2ccc(Cl)cc2)C1` (stereo not given), the melting point lay in the range of 184 to 186 °C. The result for `CS(=O)(=O)NC1CCCc2ccc([N+](=O)[O-])cc21` (stereo not given) reads 150 to 152 °C; that for `O=C(O)c1cccc(CSCCNC(=O)c2c(Cl)cccc2Cl)c1`, 165 to 166 °C; that for `CC(=O)Nc1cc2c(cc1[N+](=O)[O-])OC(C)(C)O2`, 173 to 174 °C.

In turn, `CCOC(=O)C1=CC(=O)CCC1S(=O)(=O)Nc1ccc(F)cc1Cl` (stereo not given) gave a melting point of 128 to 130 °C. In turn, `NS(=O)(=O)N1CCC(F)(F)CC1` returned a melting point of 111 to 112 °C. With `O=C1CC(c2cccc(-n3ccnc3)c2)=Nc2ccc(C#Cc3ccccc3F)cc2N1`, the melting point lay within 201 to 203 °C. The result for `COc1ccc(S(=O)(=O)Nc2ccncc2)c2c1[nH]c1ccccc12` reads 311 to 313 °C; that for `Cc1cc2c(s1)Nc1ccccc1N=C2N1CCN[C@@H](CO)C1`, 90 °C.

In the case of `O=C(Cc1ccc(Cl)cc1C(=O)O)Nc1cccc(/C=C/c2nc(C3CCC3)cs2)c1`, the melting point was 223 to 225 °C. Next, `COC(=O)c1ncc(C(=O)O)c2ccccc12`: 189 °C; `CCCCOC(=O)C(C#N)C(=O)c1ccc(Cl)cc1[N+](=O)[O-]` (stereo not given): 56 to 58 °C; `O=c1c(Br)c(O)c2cccnc2n1-c1ccccc1`: over 280 °C. For `S=C(S)CCc1ccccc1`, the melting point was in the range of 57 to 59 °C. In the case of `Cc1oc(-c2ccccc2)nc1COc1ccc(CON=C(CCC(=O)O)c2cccnc2)cc1`, the melting point lay in the range of 158 to 159 °C. For `COC(=O)c1c(C(F)(F)C(F)(F)F)[nH]c(C(F)(F)C(F)(F)F)c1C(=O)OC`, the melting point lay in the range of 68 to 71 °C. The result for `Cc1ccc(-c2ccc(C(=O)CBr)cc2)cc1` reads 120 to 122 °C; that for `CN(Cc1ccccc1CC(=O)O)C(=O)OC(C)(C)C`, 96 to 98 °C. For the compound `CCCc1nn(C)c2c(=O)n(CCCOc3ccc(OC(C)(C)C(=O)O)cc3)c(C)nc12`, the melting point lay in the range of 158 to 160 °C. With `CCCCCCCCCCCCCCc1ccc(N(CC(=O)OC)CC(=O)OC)cc1`, the melting point was in the range of 160 to 165 °C. The result for `CC1(C)CCC(C)(C)c2cc(NC(=O)c3ccc(C(=O)O)nc3)ccc21` reads 200 to 201 °C; that for `O=C(c1ccc(-c2ccccc2)cc1)c1cccnc1`, 112 to 115 °C; that for `O=C1COc2ccc(C3=Nc4ccccc4SC3c3ccccc3)cc2N1` (stereo not given), 215 to 217 °C. `NCC1CCc2c(O)cccc2C1` (stereo not given) came in with a melting point of 183 to 192 °C. Take `CC1(C)SC(=O)C2OC=CC=C21` (stereo not given): the melting point was 42 °C. The compound `CS(=O)(=O)c1ccc(OCc2ccccc2)c(C=O)c1` displayed a melting point of 129 °C. `CCC(CC)CNc1cccc(-c2ccnc3c(C(=O)c4cccs4)cnn23)c1` displayed a melting point of 192 to 194 °C. Compound `Cc1c(C(=O)O)nc2c(=O)[nH]c3ccc(-n4ccnc4)cc3n12` registered a melting point of over 250 °C. `NNc1nc(-c2ccccc2)co1` showed a melting point of 158 to 160 °C. Next, `COc1ccc(-c2ccc(-c3ccccc3)nc2-c2ccc(OCCN3CCCC3)cc2)cc1`: 100 to 103 °C; `Nc1ccc(Cl)c(C(=O)c2sc(Nc3ccc4nc[nH]c4c3)nc2N)c1Cl`: 235 to 237 °C. For the compound `CC1Cc2cc3c(cc2C(c2ccc([N+](=O)[O-])cc2)=NN1c1n[nH]c(=O)s1)OCO3` (stereo not given), the melting point was 288 °C. For `CCOC(=O)c1cc(N)ccc1OC(C)=O`, the melting point was 82.5 to 83 °C.

Regarding `COc1c(N2CC(OC)C(C)(N)C2)c(F)cc2c(=O)c(C(=O)O)cn([C@@H]3C[C@@H]3F)c12` (stereo not given in full), the melting point was 150 to 151 °C. Compound `CCCCCCSc1nn2c(=O)cc(-c3ccccc3)nc2s1` had a melting point of 90 to 91 °C. For `O=C(O)Cc1ccc(OCCNC(=O)C2Cc3ccccc3N2S(=O)(=O)c2ccc(-c3cc(C(F)(F)F)ccc3Cl)cc2)c(F)c1` (stereo not given), the melting point is 100 °C.

Consider `CC(C)(C#N)N1CCN(c2ccc(N3CC(CCC(N)=O)OC3=O)cc2F)CC1` (stereo not given), for which the melting point fell in the range of 139 to 143 °C. Next, `COC(=O)C(=O)c1ccc(N(C=O)CCOc2ccc3ccccc3c2)cc1`: 103 to 104 °C. On to `N#CCCN(N)c1nc2ccccc2s1`, for which the melting point lay in the range of 111 to 113 °C. The result for `FC(F)(F)c1cc(Sc2ccc(Cl)cc2)c(-c2ccc(Cl)cc2)[nH]1` reads 39 to 54 °C; that for `Cc1cccc(Cl)c1C(=O)N[C@@H](Cc1ccc(-c2c(C)n(C)c(=O)n(C)c2=O)cc1)C(=O)O`, 238 to 240 °C.

In turn, `Cc1cccc(-n2nc(C(F)(F)F)cc2-c2ccc(S(C)(=O)=O)c(F)c2)c1` yielded a melting point of 129 to 130 °C. The result for `COC(=O)[C@@]12CN(Cc3ccccc3)C[C@@H]1[C@@](O)(c1ccc(C)cc1)CC[C@H]2c1ccccc1` (racemic) reads 164 °C; that for `COc1ccc(N2CCOCC2)c2sc(NC(=O)N3CCC(C)(O)CC3)nc12`, 236 °C. As for `O=C1C(c2ccccc2)=C(c2ccccc2)C(=O)N1C1CCCCC1`, the melting point was in the range of 159 to 160 °C. As for `CSC1C(=O)Nc2ccc(C(F)(F)F)cc21` (stereo not given), the melting point was 136 to 138 °C.

In general, melting point refers to the temperature of the solid-liquid transition.

These data come from a melting point compilation (Tetko et al.; mined from patent text by program, amines drawn as free bases though some values may be those of a salt).
